Some results are limits rather than exact numbers.

The subject of one assay is T. cruzi Tulahuen strain C2C4. The assay can be described thus: T. cruzi Tulahuen strain C2C4 β-galactosidase assay; SI versus L6 cells. The format is cell-based, Trypanosoma cruzi. The conditions noted are these: Trypanosoma cruzi, TULAHUEN, L6, 96 h, in L6 host cells, 96 h; read-out: Compound activity T.C (IC50). On the procedure: (§1) L6 rat skeletal myoblasts, [29] were purchased from the American Type Culture Collection (ATCC, Rockville, MD, USA; ATCC number CRL 1458). This cell line was used for cytotoxicity testing to calculate an SI against T.b. rhodesiense and screened alongside the T.b. rhodesiense, P. falciparum, T. cruzi and L. donovani assays. L6 were also the host cells for the T. cruzi assay. Assays were performed in 96-well microtiter plates, each well containing 100 µl of RPMI 1640 medium supplemented with 1% L-glutamine (200 mM), 10% FCS, and 4000 L6 cells. Serial drug dilutions of eleven 3-fold dilution steps covering a range from 100 to 0.002 µg/ml were prepared. After 70 hours of incubation the plates were inspected under an inverted microscope to assure growth of the controls and sterile conditions. Ten µl of resazurin solution (resazurin, 12.5 mg in 100 ml double-distilled water) was then added to each well and the plates incubated for another 2 hours. Then the plates were read with a Spectramax Gemini XS microplate fluorometer (Molecular Devices Cooperation, Sunnyvale, CA, USA) using an excitation wavelength of 536 nm and an emission wavelength of 588 nm. Data was analysed using the microplate reader software Softmax Pro (Molecular Devices, USA). Podophyllotoxin was used as a positive control in the assay.
Rat skeletal myoblasts (L6 cells) were seeded in 96-well microtitre plates at 2000 cells/well in 100 µl RPMI 1640 medium with 10% FCS and 2 mM l-glutamine. After 24 hours the medium was removed and replaced by 100 µl per well containing 5000 trypomastigote forms of T. cruzi Tulahuen strain C2C4 containing the β-galactosidase (Lac Z) gene. After 48 hours the medium was removed from the wells and replaced by 100 µl fresh medium with or without a serial drug dilution of eleven 3-fold dilution steps covering a range from 100 to 0.002 µg/ml. After 96 hours of incubation the plates were inspected under an inverted microscope to assure growth of the controls and sterility. Then 50 µl of the substrate, containing chlorophenol red-β-D-galactopyranoside (CPRG) and Nonidet, was added to all wells. A colour reaction developed within 2–6 hours that could be read photometrically at 540 nm. Data were transferred into the graphic programme Softmax Pro (Molecular Devices, USA), which calculated IC50 values. The drug benznidazole was used as a positive standard in this assay.
As for `CCc1ccccc1N=C(NCCN1CCOCC1)NC(=O)c1ccccc1` [Compound 8], the IC50 was 82000 nM.
Same read-out and setting: then `Cc1cc(O)nc(-n2nc(C)cc2NC(=O)C2CCCC2)n1` [Compound 4], with 15400 ± 4290 nM; and `CC(C)(C)C(=O)NCCc1csc(-c2cccc(F)c2)n1` [Compound 1], with 2300 nM; and `O=C(Nc1ccc(Cl)c(-c2nc3ncccc3o2)c1)c1ccco1` [Compound 7], with 230 ± 49.6 nM.
As to `O=C(NCCc1n[nH]c(-c2ccc(F)cc2)n1)c1cccc(F)c1` [Compound 2], the IC50 was 19300 ± 90.5 nM.
On the same count and under the same terms, then `CCS(=O)(=O)N1CCCc2ccc(NS(=O)(=O)c3ccccc3F)cc21` [Compound 5], with 14800 ± 151 nM; and `CCOc1ccc(OCc2ccc(C(=O)N3CCCC(C)C3)cc2)cc1` (centres unmarked) [Compound 3], with 19100 ± 5320 nM.
On to `CCC(C)NC(=O)c1nc(-c2ccccc2)cnc1N` (centres unmarked) [Compound 6], for which the IC50 amounted to 19100 ± 5320 nM.

Staying with this assay, now noted: in L6 host cells, 96 h; read-out: Compound activity T.C (IC50).
For the compound `CCc1ccccc1N=C(NCCN1CCOCC1)NC(=O)c1ccccc1` [Compound 8], the IC50 is 82100 ± 1690 nM.
Same read-out and setting: then `CC(C)(C)C(=O)NCCc1csc(-c2cccc(F)c2)n1` [Compound 1], with 2320 ± 60.1 nM.

Still in this assay, the particulars now being: relative to L6 cells.
`CCc1ccccc1N=C(NCCN1CCOCC1)NC(=O)c1ccccc1` [Compound 8]: the “Selectivity Index T.C” value came to 1.61.
Same read-out and setting: to `Cc1cc(O)nc(-n2nc(C)cc2NC(=O)C2CCCC2)n1` [Compound 4] belongs 0.0588; to `CC(C)(C)C(=O)NCCc1csc(-c2cccc(F)c2)n1` [Compound 1], 26.8.
Still for that read-out and setting: to `O=C(NCCc1n[nH]c(-c2ccc(F)cc2)n1)c1cccc(F)c1` [Compound 2] belongs 6.20; to `CCS(=O)(=O)N1CCCc2ccc(NS(=O)(=O)c3ccccc3F)cc21` [Compound 5], 1.47; to `CCOc1ccc(OCc2ccc(C(=O)N3CCCC(C)C3)cc2)cc1` (centres unmarked) [Compound 3], 2.56.
With `CCC(C)NC(=O)c1nc(-c2ccccc2)cnc1N` (centres unmarked) [Compound 6], the “Selectivity Index T.C” value stood at 0.933.

The next assay concerns L. donovani strain MHOM/ET/67/L82 axenic amastigotes. The assay can be described thus: L. donovani axenic amastigote fluorescence assay; SI versus L6 cells. The format is cell-based, Leishmania donovani. The settings on record: Leishmania donovani, L6, 70 h, axenic amastigotes, 70 h; read-out: Compound activity L.D (IC50). The method, then:
as §1
Amastigotes of L. donovani strain MHOM/ET/67/L82 were grown in axenic culture at 37°C in SM medium at pH 5.4 supplemented with 10% heat-inactivated FCS under an atmosphere of 5% CO2 in air. One hundred µl of culture medium containing 10^5 amastigotes from axenic culture with or without a serial drug dilution were seeded in 96-well microtitre plates. Serial drug dilutions of eleven 3-fold dilution steps covering a range from 100 to 0.002 µg/ml were prepared. After 70 hours of incubation the plates were inspected under an inverted microscope to assure growth of the controls and sterile conditions. Ten µl of resazurin solution (12.5 mg resazurin dissolved in 100 ml distilled water) were then added to each well and the plates incubated for another 2 hours. The plates were then read with a Spectramax Gemini XS microplate fluorometer (Molecular Devices, USA) using an excitation wavelength of 536 nm and an emission wavelength of 588 nm. Data was analysed using the software Softmax Pro (Molecular Devices, USA). Decrease of fluorescence ( = inhibition) was expressed as percentage of the fluorescence of control cultures and plotted against the drug concentrations. From the sigmoidal inhibition curves the IC50 values were calculated. Miltefosine served as a known drug control in this assay.
Regarding `CCc1ccccc1N=C(NCCN1CCOCC1)NC(=O)c1ccccc1` [Compound 8], the IC50 is over 263000 nM.
`Cc1cc(O)nc(-n2nc(C)cc2NC(=O)C2CCCC2)n1` [Compound 4]: the IC50 was 488 ± 154 nM.
The same measure, in the same setting: then `CC(C)(C)C(=O)NCCc1csc(-c2cccc(F)c2)n1` [Compound 1], with 46100 ± 22400 nM.
With `O=C(Nc1ccc(Cl)c(-c2nc3ncccc3o2)c1)c1ccco1` [Compound 7], the IC50 was determined as 1800 nM.
Same read-out and setting: then `O=C(NCCc1n[nH]c(-c2ccc(F)cc2)n1)c1cccc(F)c1` [Compound 2], with 47300 ± 324 nM; and `CCS(=O)(=O)N1CCCc2ccc(NS(=O)(=O)c3ccccc3F)cc21` [Compound 5], with 6600 ± 1560 nM.
With `CCOc1ccc(OCc2ccc(C(=O)N3CCCC(C)C3)cc2)cc1` (centres unmarked) [Compound 3], the concentration for half-maximal inhibition (IC50) stood at 16100 ± 1700 nM.
On the same count and under the same terms, then `CCC(C)NC(=O)c1nc(-c2ccccc2)cnc1N` (centres unmarked) [Compound 6], with 34000 ± 5600 nM.

The same assay, now with this note: axenic amastigotes, 70 h; read-out: Compound activity L.D (IC50).
As for `O=C(Nc1ccc(Cl)c(-c2nc3ncccc3o2)c1)c1ccco1` [Compound 7], the IC50 was determined as 1820 ± 277 nM.

The same assay, now with this note: relative to L6 cells.
Take `Cc1cc(O)nc(-n2nc(C)cc2NC(=O)C2CCCC2)n1` [Compound 4]: the “Selectivity Index L.D” value amounted to 1.84.
For `CC(C)(C)C(=O)NCCc1csc(-c2cccc(F)c2)n1` [Compound 1], the “Selectivity Index L.D” value is listed as 1.35.
Same read-out and setting: to `O=C(NCCc1n[nH]c(-c2ccc(F)cc2)n1)c1cccc(F)c1` [Compound 2] belongs 2.53.
On the same count and under the same terms, then `CCS(=O)(=O)N1CCCc2ccc(NS(=O)(=O)c3ccccc3F)cc21` [Compound 5], with 3.29; and `CCOc1ccc(OCc2ccc(C(=O)N3CCCC(C)C3)cc2)cc1` (centres unmarked) [Compound 3], with 3.09.
Same read-out and setting: then `CCC(C)NC(=O)c1nc(-c2ccccc2)cnc1N` (centres unmarked) [Compound 6], with 0.525.

Another assay relates to T.b. brucei. The assay can be described thus: Time to kill assay (Presto Blue). Type of assay: cell-based, Trypanosoma brucei brucei.
Conditions: not given
The method, then: The starting dose was 40 µM, and the IC50 values were determined from a 16 point dose-response curve. The assay conditions were the same as previously described for the Alamar Blue assay, except that 10 µL of a final 10% concentration of Presto Blue in HMI-9 medium was added as the indicator of viable cells, at various time points. At the first time point, following 20 hours of incubation with compounds, Presto Blue was added to the wells and incubation at 37°C continued. Plates were read every hour and returned to continue incubation at 37°C. This was performed to determine at which time point there was a reproducible signal (Z' of >0.5), using puromycin as a […].
Turning to `N=C(N)c1ccc(OCCCCCOc2ccc(C(=N)N)cc2)cc1` [Pentamidine, pentamidine, reference compound], the “exposure time at which stable/maximum IC50 value was reached” value worked out at 48 h.
Same read-out and setting: then `CCC(C)NC(=O)c1nc(-c2ccccc2)cnc1N` (centres unmarked) [Compound 6], with 48 h; and `COc1ccc(C[C@H](N)C(=O)N[C@H]2[C@@H](O)[C@H](n3cnc4c(N(C)C)ncnc43)O[C@@H]2CO)cc1` [Puromycin, puromycin, reference compound], with 48 h.

The same assay, now with this note: Trypanosoma brucei, 29 hours after addition of compound, 2 experiments, read-out: Activity (IC50 value) 29 hours.
Turning to `N=C(N)c1ccc(OCCCCCOc2ccc(C(=N)N)cc2)cc1` [Pentamidine, pentamidine, reference compound], the IC50 turned out to be 9.13 ± 2.76 nM.
On the same count and under the same terms, to `CC(C)(C)C(=O)NCCc1csc(-c2cccc(F)c2)n1` [Compound 1] belongs 898 ± 332 nM; to `O=C(Nc1ccc(Cl)c(-c2nc3ncccc3o2)c1)c1ccco1` [Compound 7], 178 ± 7 nM; to `O=C(NCCc1n[nH]c(-c2ccc(F)cc2)n1)c1cccc(F)c1` [Compound 2], 4840 ± 449 nM.
The same measure, in the same setting: to `CCC(C)NC(=O)c1nc(-c2ccccc2)cnc1N` (centres unmarked) [Compound 6] belongs 3090 ± 1380 nM; to `COc1ccc(C[C@H](N)C(=O)N[C@H]2[C@@H](O)[C@H](n3cnc4c(N(C)C)ncnc43)O[C@@H]2CO)cc1` [Puromycin, puromycin, reference compound], 152 ± 65.4 nM.

Still in this assay, the particulars now being: Trypanosoma brucei, 48 hours after addition of compound, read-out: Activity (IC50 value) 48 hours.
For the compound `N=C(N)c1ccc(OCCCCCOc2ccc(C(=N)N)cc2)cc1` [Pentamidine, pentamidine, reference compound], the half-inhibitory concentration (IC50) came out at 3.41 ± 0.661 nM.
Still for that read-out and setting: to `CC(C)(C)C(=O)NCCc1csc(-c2cccc(F)c2)n1` [Compound 1] belongs 691 ± 66.4 nM; to `O=C(Nc1ccc(Cl)c(-c2nc3ncccc3o2)c1)c1ccco1` [Compound 7], 142 ± 38.7 nM.
As to `O=C(NCCc1n[nH]c(-c2ccc(F)cc2)n1)c1cccc(F)c1` [Compound 2], the IC50 turned out to be 3830 ± 873 nM.
The same measure, in the same setting: to `CCC(C)NC(=O)c1nc(-c2ccccc2)cnc1N` (centres unmarked) [Compound 6] belongs 177 ± 11 nM.
On the same count and under the same terms, to `COc1ccc(C[C@H](N)C(=O)N[C@H]2[C@@H](O)[C@H](n3cnc4c(N(C)C)ncnc43)O[C@@H]2CO)cc1` [Puromycin, puromycin, reference compound] belongs 58.1 ± 10.1 nM.

The same assay, now with this note: Trypanosoma brucei, read-out: Activity (IC50 value) 72 hours, 72 hours after addition of compound.
Regarding `N=C(N)c1ccc(OCCCCCOc2ccc(C(=N)N)cc2)cc1` [Pentamidine, pentamidine, reference compound], the IC50 was found to be 4.66 ± 0.936 nM.
Same read-out and setting: to `CC(C)(C)C(=O)NCCc1csc(-c2cccc(F)c2)n1` [Compound 1] belongs 1030 ± 18.4 nM; to `O=C(Nc1ccc(Cl)c(-c2nc3ncccc3o2)c1)c1ccco1` [Compound 7], 220 ± 17.6 nM; to `O=C(NCCc1n[nH]c(-c2ccc(F)cc2)n1)c1cccc(F)c1` [Compound 2], 500 ± 43.1 nM.
The same measure, in the same setting: then `CCC(C)NC(=O)c1nc(-c2ccccc2)cnc1N` (centres unmarked) [Compound 6], with 111 ± 50.2 nM; and `COc1ccc(C[C@H](N)C(=O)N[C@H]2[C@@H](O)[C@H](n3cnc4c(N(C)C)ncnc43)O[C@@H]2CO)cc1` [Puromycin, puromycin, reference compound], with 68.6 ± 0.283 nM.
